From US20050209278A1, “Piperidinyl- and piperazinyl-sulfonylmethyl hydroxamic acids and their use as protease inhibitors” (priority 2002, published 2005)

Molecular target: T1, MMP-2 (Homo sapiens, UniProt P08253)
T1 construct: made in house; host or cells: MMP-2-transfected p2AHT2 cells
T1 sequence (P08253 110-660): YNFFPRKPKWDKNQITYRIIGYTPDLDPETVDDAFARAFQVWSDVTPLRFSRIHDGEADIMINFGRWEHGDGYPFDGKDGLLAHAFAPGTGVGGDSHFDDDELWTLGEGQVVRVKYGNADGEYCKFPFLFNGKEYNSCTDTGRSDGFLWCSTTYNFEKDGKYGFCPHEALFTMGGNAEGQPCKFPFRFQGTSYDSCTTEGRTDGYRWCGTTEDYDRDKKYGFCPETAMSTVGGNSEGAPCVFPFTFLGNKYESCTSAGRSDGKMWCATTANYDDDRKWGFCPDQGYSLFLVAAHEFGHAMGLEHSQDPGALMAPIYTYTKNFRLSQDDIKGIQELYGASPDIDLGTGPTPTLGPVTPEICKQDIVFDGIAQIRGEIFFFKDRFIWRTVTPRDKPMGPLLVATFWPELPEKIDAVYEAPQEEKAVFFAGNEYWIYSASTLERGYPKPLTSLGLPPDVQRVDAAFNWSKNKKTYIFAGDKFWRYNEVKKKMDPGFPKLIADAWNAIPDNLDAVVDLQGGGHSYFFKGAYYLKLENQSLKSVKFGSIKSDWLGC
Test: In vitro MMP inhibition, IC50 determination (fluorogenic substrate I)
Assay type: biochemical
Settings: value in parenthesis; read-out: MMP-2 (IC-50)
Description: Several hydroxamic acids and salts thereof were analyzed in in vitro assays to determine their ability to inhibit the MMP cleavage of peptide substrates. […] and IC50 constants were calculated from the assayed hydroxamic acid-MMP interactions.
Human recombinant MMP-1, MMP-2, MMP-9, MMP-13, and MMP-14 were used in this assay. All enzymes were prepared in Assignee's laboratories following usual laboratory procedures. Protocols for the preparation and use of these enzymes are available in the scientific literature. See, e.g., Enzyme Nomenclature (Academic Press, San Diego, Calif., 1992) (and the citations therein). See also, Freije et al., “Molecular cloning and expression of collagenase-3, a novel human matrix metalloproteinase produced by breast carcinomas,” J Biol. Chem., 269(24), 16766-16773 (1994).
The MMP-2 proenzyme was purified by gelatin Sepharose chromatography from MMP-2-transfected p2AHT2 cells provided by Dr. Gregory Goldberg of Washington University (St. Louis, Mo.).
All MMPs were activated using 4-aminophenylmercuric acetate (“APMA”, Sigma Chemical, St. Louis, Mo.) or trypsin. MMP-9 also was activated using human recombinant MMP-3 (purified in Assignee's laboratory following standard cloning and purification techniques).
Two fluorogenic, methoxycoumarin-containing polypeptide substrates were used in the MMP inhibition assays: [drawing 427] Here, “Dpa” is 3-(2,4-dinitrophenyl)-L-2,3-diaminopropionyl group, and “MCA” is 7-methoxycoumarin-4-yl acetyl. Substrate (I) was purchased from Baychem (Redwood City, Calif.), and substrate II was prepared Assignee's laboratory. Substrate I was used in the IC50 determination assays, while substrate II was used in the Ki determination assays. In the absence of MMP inhibitory activity, either substrate is cleaved at the Gly-Leu peptide bond. This cleavage separates the highly fluorogenic peptide from the 2,4-dinitrophenyl quencher, thus resulting in increase of fluorescent intensity.
The stock solutions of the assayed hydroxamic acids (or salts thereof) were prepared in 1% dimethyl sulfoxide (DMSO). These stock solutions were diluted in Buffer A (100 mM Tris-HCl, 100 mM NaCl, 10 mM CaCl2, 0.05% polyoxyethylene 23 lauryl ether, pH 7.5) to obtain solutions with different hydroxamic acid concentrations, i.e., assay solutions with different concentrations of the assayed MMP inhibitory compound. The experiment controls contained the same amount of Buffer A/DMSO as the assayed sample, but contained no hydroxamic acid (or salt thereof).
The assays from which the IC50 determinations were made were performed as follows. The MMPs were activated with either trypsin or APMA (4-aminophenylmercuric acetate, Sigma Chemical, St. Louis, Mo.). The assayed hydroxamic acid samples were incubated in Microfluor™ White Plates (Dynatech, Chantilly, Va.) and analyzed on a Perkin Elmer L550 plate reader (Norwalk, Conn.). The excitation wavelength was 328 nm, and the emission wavelength—415 nm. All samples (assayed hydroxamic acids and controls) were incubated in separate plates at room temperature in the presence of 4 μM of MMP substrate (I). As stated in the previous paragraph, samples containing varying concentrations of the same assayed hydroxamic acid were prepared. Inhibition was measured as a reduction in fluorescent intensity as a function of MMP inhibitor concentration.
The above protocols were used to determine IC50 constants and Ki values for the compounds in Examples 1-27 above. All values in Table 2 are given in nM units. The IC50 measurements are in parenthesis.

| SMILES | IC50 |
| --- | --- |
| CCCC(C)Cc1ccc(N2CCN(S(=O)(=O)C3(C(=O)NO)CCN(CCOC)CC3)CC2)cc1 (stereo not drawn) [Example 189] | 1.9 nM |
| CCCCCc1ccc(N2CCN(S(=O)(=O)C3(C(=O)NO)CCOCC3)CC2)nn1 [Example 197] | 19.1 nM |
| COCCN1CCC(C(=O)NO)(S(=O)(=O)N2CCN(c3nc4ccccc4o3)CC2)CC1 [Example 196] | 30.5 nM |
| CCc1ccc(N2CCN(S(=O)(=O)C3(C(=O)NO)CCN(CCOC)CC3)CC2)cc1 [Example 193] | 0.2 nM |
| COCCN1CCC(C(=O)NO)(S(=O)(=O)N2CCN(c3ccc(CC(C)C)cc3)CC2)CC1 [Example 192] | 1.3 nM |
| O=C(NO)C1(S(=O)(=O)N2CCN(c3ccc(OC(F)(F)F)cc3)CC2)CCN(C2CC2)CC1 [Example 203] | < 0.1 nM |
| CCCCCCc1ccc(N2CCN(S(=O)(=O)C3(C(=O)NO)CCN(CCOC)CC3)CC2)cc1 [Example 199] | < 0.1 nM |
| COCCN1CCC(C(=O)NO)(S(=O)(=O)N2CCN(c3ccccc3)CC2)CC1 [Example 195] | 2.4 nM |
| COCCN1CCC(C(=O)NO)(S(=O)(=O)N2CCN(c3ccc(Br)cc3)CC2)CC1 [Example 201] | < 0.1 nM |
| CCCc1ccc(N2CCN(S(=O)(=O)C3(C(=O)NO)CCN(CCOC)CC3)CC2)cc1 [Example 200] | < 0.1 nM |
| O=C(NO)C1(S(=O)(=O)N2CCN(c3ccc(Cl)nn3)CC2)CCOCC1 [Example 198] | 18.2 nM |
| COCCN1CCC(C(=O)NO)(S(=O)(=O)N2CCN(c3ccc(C)cc3)CC2)CC1 [Example 194] | 0.5 nM |
| COCCN1CCC(C(=O)NO)(S(=O)(=O)N2CCN(c3ccc(CCCCC(C)C)cc3)CC2)CC1 [Example 191] | < 0.1 nM |
| CCC(C)Cc1ccc(N2CCN(S(=O)(=O)C3(C(=O)NO)CCN(CCOC)CC3)CC2)cc1 (stereo not drawn) [Example 190] | 1.6 nM |
| COCCN1CCC(C(=O)NO)(S(=O)(=O)N2CCN(c3ccc(OC(F)(F)F)cc3)CC2)CC1 [Example 202] | < 0.1 nM |
